Read-outs that look alike come from different tables or passages of the source.
Columns and labels:
Type in all cases: cell-based
[1] = system: MT-2 cells; assay: In vitro selectivity index in MT-2 cells; conditions: (50% cytotoxic dose/50% effective dose)×100
Experimental: The in vitro selectivity indexes for PFA and lipid analogs of PFA were determined in MT-2 cells and are as follows:
Note that the selectivity index ((50% cytotoxic dose/50% effective dose)×100) is much greater for the lipid analogs of PFA than for PFA itself. Since the lipid analogs have a much greater oral absorption than PFA, they may be given orally for controlling replication of drug-resistant HIV either alone or in combination with one or more antiviral agents. AZT is especially preferred in combination with the lipid analogs of PFA.

[2] = system: multidrug-resistant HIV-1 clinical isolate 11163p1; assay: p24 reduction assay in MT-2 cells, 11163p1
Experimental: (§1) Cells. MT-2 cells (AIDS Research and Reference Reagent Program, National Institute of Allergy and Infectious Diseases, National Institutes of Health) were maintained in RPMI 1640 supplemented with 10% fetal bovine serum (FBS; JRH Biosciences, Lenexa, Kans.), 10 mM HEPES buffer, 50 IU/ml penicillin and 50 μg/ml streptomycin.
Antiviral Susceptibility Assays. The antiviral activity of each compound […], followed by incubation in the presence of three-fold serial drug dilutions (3 wells per dilution) (see Mellors, et. al., Antimicrob. Agents Chemother. 39:1087-1092). Five or seven days after infection, culture supernatants were harvested, lysed with 0.5% triton-X 100 and assayed for p24 antigen concentration using a commercial ELISA assay (DuPont, NEN Products, Wilmington, Del.). The antiviral activity of the compounds is expressed as the IC50, which is the concentration required to inhibit 50% of p24 antigen production. The fold-resistance of a test virus is calculated by dividing the IC50 of the test virus by the IC50 of the HIV-1LAI control virus.
The multi-drug resistant HIV-1 strains, 11163p1 and 11588p1, are human clinical isolates having the RT mutations indicated. […]

[3] = system: HIV-1LAI 4XAZT/W88G; assay: p24 reduction assay in MT-2 cells, 4XAZT/W88G
Experimental: as §1
(§2) Antiviral Susceptibility Assays. The antiviral activity of each compound was determined by inoculating MT-2 cells with HIV-1LAI at a multiplicity of infection (MOI) of 0.01 TCID50/cell, followed by incubation in the presence of three-fold serial drug dilutions (3 wells per dilution) (see Mellors, et. al., Antimicrob. Agents Chemother. 39:1087-1092). Five or seven days after infection, culture supernatants were harvested, lysed with 0.5% triton-X 100 and assayed for p24 antigen concentration using a commercial ELISA assay (DuPont, NEN Products, Wilmington, Del.). The antiviral activity of the compounds is expressed as the IC50, which is the concentration required to inhibit 50% of p24 antigen production. The fold-resistance of a test virus is calculated by dividing the IC50 of the test virus by the IC50 of the HIV-1LAI control virus.
(§3) Generation of Mutant Recombinant HIV-1. HIV-1 containing the desired mutations were generated by oligonucleotide directed mutagenesis (Altered Sites II, Promega) as previously described (Mellors, et. al., Molecular Pharm. 41:446-451). After mutagenesis, mutant RT was subcloned into the pxxHIV-1LAI cloning vector using the silent XmaI and XbaI restriction sites located at the 5′ and 3′ ends of RT. Clones were DNA sequenced to verify the presence of the desired mutation(s) and electroporated into MT-2 cells as described above to generate infectious mutant recombinant HIV-1.
(§4) Mutant RT was generated via oligonucleotide-directed mutagenesis and ligated into the pXXHIV-1LAI cloning vector. Cloning was facilitated by the presence of two silent restriction sites at the 5′ and 3′ ends (Xma1 and Xba1, respectively) of pXXHIV-1LAI RT. Infectious mutant recombinant HIV-1 was generated by electroporating MT-2 cells with mutated pXXHIV-1LAI clones. The presence of the desired mutations was verified by DNA sequencing.
(§5) Invention compounds were also evaluated against a panel of HIV-1LAI derived recombinants resistant to PFA and the PFA invention compounds, as shown in Table 7.
Recombinant viruses containing the mutations selected by invention compounds were also evaluated for their susceptibility to AZT, as shown in Table 8.

[4] = system: HIV-1LAI Q161L/H208Y; assay: p24 reduction assay in MT-2 cells, Q161L/H208Y; conditions: Table 7; for EC50: Q161L/H208Y; for Fold-resistance: Q161L/H208Y relative to wild type virus
Experimental: as §1, §2, §3, §4, §5

[5] = system: HIV-1 G2-3g (molecularly cloned isolate co-resistant to AZT and 3TC); assay: p24 reduction assay in MT-2 cells, G2-3g; conditions: for EC50: G2-3g; for Fold-resistance: G2-3g relative to wild type virus
Experimental: as §1, §2
The multi-drug resistant HIV-1 strains, 11163p1 and 11588p1, are human clinical isolates having the RT mutations indicated. HIV-1 strains treated with the lipid analogs of the present invention include wild type, e.g., xxLAI, and the like, single mutation, e.g., xxLAI MI 84V (resistant to 3TC), xxLAI L74V (resistant to ddI and ddC), xxLAI K65R (resistant to ddI, ddC, DAPD, DXG, tenofovir, and adefovir), xxLAI T215Y (resistant to AZT), and the like, double mutations, e.g., xxLAI M41 L/T215Y (resistant to AZT), xxLAI MI 84V/T215Y (resistant to 3TC and AZT), and the like, and multiple mutations, e.g., xxLAI 4XAZT ((D67N, K70R, T215Y, K219Q) resistant to AZT)), xxLAI 4XAZT/M184V ((D67N, K70R, M 184V, T215Y, K219Q) resistant to AZT and 3TC), xxLAI M5456-12 (AZT+NNRTI resistant: D67N, K70R, K103N, T215Y), xxLAI G2-3g (AZT/3TC co-resistant: M41L, D67N, M184V, H208Y, L210W, R211K, L214F, T215Y, 1293V, E297A), 11163 (multinucleoside resistant virsus: M41L, A62V, V751, F77L, K103N, F116Y, Q151M, Y181C, M184V), 11588 (multinucleoside resistant virsus: A62V, K65R, K70R, V751, F77L, F116Y, Q151M, M184V, K219Q), and the like.

[6] = system: HIV-1LAI T215Y; assay: p24 reduction assay in MT-2 cells, T215Y; conditions: Table 1, MOI 0.01
Experimental: as §1, §2, §3
Mutant RT was generated via oligonucleotide-directed mutagenesis and ligated into the pXXHIV-1LAI cloning vector. Cloning was facilitated by the presence of two silent restriction sites at the 5′ and 3′ ends (Xma1 and Xba1, respectively) of pXXHIV-1LAI RT. […]

[7] = Table 7, 4XAZTW88G, read-out: EC50

SMILES	Selectivity Index [1]	EC50 ([2]; Human immunodeficiency virus 1, MT2, Table 2, MOI 0.05)	EC50 ([3]; Human immunodeficiency virus 1, MT2, Table 7, 4XAZTW88G, read-out: EC50)	EC50 ([4]; Human immunodeficiency virus 1, MT2)	EC50 ([5]; Human immunodeficiency virus 1, MT2, Table 1, MOI 0.01)	EC50 ([5]; Human immunodeficiency virus 1, MT2, Table 5, mean ± SD)	Fold-resistance ([5]; Table 5)	EC50 ([2]; Table 2, MOI 0.05)	EC50 [6]	EC50 [3, 7]	EC50 [4]	Fold-resistance [4]	EC50 ([5]; Table 1, MOI 0.01)	EC50 ([5]; Table 5, mean ± SD)	EC50 ([3]; Human immunodeficiency virus 1, MT2, Table 8, W88G/4XAZT, read-out: AZT EC50)	Fold resistance ([3]; Table 8, W88G/4XAZT relative to wild type virus)
O=C(O)P(=O)(O)O [PFA, phosphonoformate, reference compound]	137	24400 nM	86200 nM	126000 nM	7600 nM	8850 ± 3490 nM	(0.5)	–	–	–	–	–	–	–	–	–
CCCCCCCCCCCCCCCCCCOC[C@@H](O)COP(=O)(O)C(=O)O [B-PFA, 1-O-octadecyl-sn-glycero-3-PFA]	781	–	–	–	–	–	(0.9)	3480 nM	840 nM	16400 nM	> 30000 nM	(>17.2)	1470 nM	1670 ± 950 nM	–	–
Cc1cn([C@H]2C[C@H](N=[N+]=[N-])[C@@H](CO)O2)c(=O)[nH]c1=O [AZT, 3′-Azido-3′-deoxythymidine]	–	–	–	–	–	–	–	–	–	–	–	–	–	–	60 ± 18 nM	1.5
CCCCCCCCCCCCCCCCCCOC[C@H](COP(=O)(O)C(=O)O)OCC [EB-PFA, 1-O-octadecyl-2-O-ethyl-sn-glycero-3-PFA]	1905	–	–	–	–	–	(0.5)	1230 nM	140 nM	3310 nM	7020 nM	–	320 nM	300 ± 40 nM	–	–
CCCCCCCCCCCCCCCCCCOC[C@H](COP(=O)(O)C(=O)O)OC [MB-PFA, 1-O-octadecyl-2-O-methyl-sn-glycero-3-PFA]	953	–	–	–	–	–	(0.8)	–	270 nM	2460 nM	12800 nM	9.00 (17.7)	260 nM	400 ± 260 nM	–	–
